{
  "source": "patent US8071549B2",
  "about": "“Compounds capable of affecting differentiation, proliferation, regeneration, plasticity and survival cells” (priority 2001, dated 2011)",
  "molecules": {"B1": {"name": "brains-derived neurotrophic factor: neurotrophic factor used as comparison in the survival assay (protein, UniProt P23560 19-247, looked up)", "Neurotrophic factor BDNF …": "APMKEANIRGQGGLAYPGVRTHGTLESVNGPKAGSRGLTSLADTFEHVIEELLDEDQKVRPNEENNKDADLYTSRVMLSSQVPLEPPLLFLLEEYKNYLDAANMSMRVRRHSDPARRGELSVCDSISEWVTAADKKTAVDMSGGTVTVLEKVPVSKGQLKQYFYETKCNPMGYTKEGCRGIDKRHWNSQCRTTQSYVRALTMDSKKRIGWRFIRIDTSCVCTLTIKRGR"}},
  "key": {"hippocampal neurons": {"test_system": "hippocampal neurons", "experiment": "Neurite outgrowth from hippocampal neurons", "details": "for neurite outgrowth in dose-response study: bell-shaped dose-response curve, 24 h", "experimental": "Neurons were grown on Permanox plastic (Nunc, Denmark) for 24 h at a density 6250 cells/cm^2, at 37° C., 5% CO2 in Neurobasal medium containing 20 mM Hepes, 100 U/ml penicillin, 100 μg/ml streptomycin, 0.4% BSA supplemented with B27 (Gibco BRL, USA). After 24 h, cells were fixed with paraformaldehyde, stained with Coomassie Brilliant Blue R250 and analyzed.\nTo test this assumption, dissociated neurons from embryonic rat hippocampus were seeded on plastic and allowed to grow for 24 h in the presence of the below described compounds. Thereafter, cells were fixed with paraformaldehyde, stained with Coomassie Brilliant Blue R250 and the length of neurites was measured using a stereological approach (Rønn et al., 2000).\nPeptides derived from the FG-lops of the neural cell adhesion molecules L1 and NCAM (third F3-module of L1 and first F3 module of NCAM) were prepared in different lengths, see FIG. 9a, and their effect on neurite outgrowth from primary hippocampal neurons were tested adding the various peptides in a concentration of 25 microM."}, "FGF-receptor 1": {"target": "T1, FGF-receptor 1 (Homo sapiens, UniProt P11362)", "T1 construct": "expressed in transfected cells; host or cells: HEK293, transient, PcDNA3.1(+) plasmid", "T1 sequence (P11362 22-822)": "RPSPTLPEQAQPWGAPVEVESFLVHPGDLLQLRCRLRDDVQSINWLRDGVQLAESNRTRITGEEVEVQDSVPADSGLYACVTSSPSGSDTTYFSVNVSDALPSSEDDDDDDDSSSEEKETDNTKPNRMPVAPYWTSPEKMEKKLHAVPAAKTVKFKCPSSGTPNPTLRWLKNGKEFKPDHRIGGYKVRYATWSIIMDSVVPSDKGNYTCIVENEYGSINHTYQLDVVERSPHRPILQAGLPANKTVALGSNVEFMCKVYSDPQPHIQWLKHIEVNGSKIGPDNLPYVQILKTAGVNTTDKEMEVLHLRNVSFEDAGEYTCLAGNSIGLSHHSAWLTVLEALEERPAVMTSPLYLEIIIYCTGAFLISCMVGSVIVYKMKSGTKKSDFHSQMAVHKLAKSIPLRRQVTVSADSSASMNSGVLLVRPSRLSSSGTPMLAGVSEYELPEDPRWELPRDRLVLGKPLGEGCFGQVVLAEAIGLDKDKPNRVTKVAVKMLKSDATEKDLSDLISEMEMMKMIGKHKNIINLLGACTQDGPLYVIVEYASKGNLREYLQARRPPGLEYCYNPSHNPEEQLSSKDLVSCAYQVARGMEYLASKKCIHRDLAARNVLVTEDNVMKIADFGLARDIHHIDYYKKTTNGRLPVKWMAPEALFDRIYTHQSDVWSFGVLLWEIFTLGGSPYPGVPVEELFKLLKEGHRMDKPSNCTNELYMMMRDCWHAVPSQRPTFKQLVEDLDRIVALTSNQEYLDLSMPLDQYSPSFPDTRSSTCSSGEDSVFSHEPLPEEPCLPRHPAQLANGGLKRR", "experiment": "FGF-receptor phosphorylation in transfected HEK293 cells (immunoblotting)", "type": "cell-based", "details": "25 μM, 20 min, HEK293 cells with His-tagged FGF-receptor 1", "protocol": "Cells were grown in DMEM 1965 with 10% FCS, 100 U/ml penicillin, 100 μg/ml streptomycin and 58.4 g/l Glutamax. ˜0.8*10^6 cells were plated in 60 mm plates and cultured for 24 hrs before being transfected using LipofectAMIN PLUS™ reagent kit according to manufacturers instructions (Gibco BRL) with 0.2 μg PcDNA3.1(+) plasmid encoding a his-tagged (C-terminal hexa-histidine) version of FGFR-1. Cells were grown another 24 hrs in full medium, and then shifted to starving media (DMEM 1965 with 0.5% FCS) overnight.\nFGFR-1 transfected cells, incubated with 50 μg/ml NCAM derived recombinant fIII.2 or FG-loop for 20 minutes or non-stimulated, were lysed in 8M urea in PBS with 1 mM orthovanadate. The FGFR-1 was purified from total lysate via the His-tag moiety on an IMAC column. […] Samples were added SDS-PAGE sample buffer and analysed by western blotting using anti-pentahis ab (#34660 Qiagen) or anti-phosphotyrosine ab (PY20) (#11120 Transduction Laboratories). Bands were visualised by chemilumiscense and density was measured using a GeneGnome from SynGene with a 16 bit camera.\nTherefore, HEK293 cells were grown for 24 h on plastic plates, and subsequently transfected with a His-tagged version of the FGF-receptor 1 and cultured for another 24 h. […] The purified FGF-receptor 1 was then analyzed by immunoblotting using antibodies either to the His-tag or phosphotyrosine. […]"}, "[1]": {"test_system": "Cerebellar granule neurons", "experiment": "Survival assay of cerebellar granule neurons in low potassium (MTS)", "type": "cell-based, rat", "details": "5 mM potassium, two days; for cells surviving, high potassium set at 100%: serum-free", "protocol": "Cerebellar granule neurons (CGN) from 7-days old rats are grown for 7-8 days in the presence of high potassium (40 mM). Cells are washed twice with serum-free culture medium (basal Eagle's medium BME) containing low potassium (5 mM) and grown in serum-free medium supplemented with FGL peptide for two days. Cultures are assayed for cell survival (D'Mello et al., 1997; Villalba et al., 1997; Skaper et al., 1998) by measuring reduction of MTS. MTS is a novel tetrazolium compound (Promega, USA), which is bioreduced by cells into a formazan that is soluble in tissue culture medium. The absorbance of the formazan at 490 nm is measured directly from 96 well assay plates without additional processing. The conversion of MTS into the aqueous soluble formazan is accomplished by dehydrogenase enzymes found in metabolically active cells. The quantity of formazan product as measured by the amount of 490 nm absorbance is directly proportional to the number of living cells in culture (Yao and Cooper, 1995);"}},
  "note": "Peptide text beside a SMILES is read from it.",
  "data": [
    {"molecule": "AMKEDGR (listed as Homo sapiens)", "values": [
      {"measurement": "neuritogenic potency (neurite outgrowth), result in words", "setting": "hippocampal neurons; 50 μM peptide", "result": "to the same extent as the similar seven amino acids from the second F3 module of NCAM"}
    ]},
    {"molecule": "EVAVVAENQQGASAA (listed as Homo sapiens)", "values": [
      {"measurement": "neuritogenic potency (neurite outgrowth), result in words", "setting": "hippocampal neurons; 50 μM peptide", "result": "retained its neuritogenic potency"},
      {"measurement": "stimulatory effect retained as compared to the entire (non-mutated) FG loop peptide", "setting": "hippocampal neurons; 50 μM peptide", "result": "about 60%"},
      {"measurement": "inhibition of the peptide's stimulatory effect by ATP", "setting": "hippocampal neurons; 50 μM peptide, ATP 0.4 or 1 mM", "result": "could no longer be inhibited by ATP"}
    ]},
    {"molecule": "CC(C)[C@H](NC(=O)[C@H](Cc1ccc(O)cc1)NC(=O)[C@@H](NC(=O)[C@@H](N)CCC(=O)O)C(C)C)C(=O)N[C@H](C(=O)N[C@@H](C)C(=O)N[C@@H](CCC(=O)O)C(=O)N[C@@H](CC(N)=O)C(=O)N[C@@H](CCC(N)=O)C(=O)N[C@@H](CCC(N)=O)C(=O)NCC(=O)N[C@@H](CCCCN)C(=O)N[C@@H](CO)C(=O)N[C@@H](CCCCN)C(=O)N[C@@H](C)C(=O)O)C(C)C", "note": "[FG loop peptide] (H-EVYVVAENQQGKSKA-OH)", "values": [
      {"measurement": "increase of FGF-receptor phosphorylation compared to control cells", "setting": "FGF-receptor 1", "result": "approx. 100%"},
      {"measurement": "survival, % of the positive control", "setting": "[1]; 250 microgram per ml, monomeric form", "result": "up to 90%"},
      {"measurement": "survival, result in words", "setting": "[1]; dose-range 2-250 microgram per ml", "result": "statistically significant survival"},
      {"measurement": "inhibition of induced neurite outgrowth by an antibody against the FGF-receptor", "setting": "hippocampal neurons; 5 μM second F3 module or 50 μM FG loop peptide", "result": "complete inhibition"},
      {"measurement": "neurite outgrowth in dose-response study", "setting": "hippocampal neurons", "result": "induced neurite outgrowth"}
    ]},
    {"molecule": "basic fibroblast growth factor: growth factor, natural ligand of the FGF-receptor, comparison in the survival assay [reference compound]", "values": [
      {"measurement": "cells surviving, high potassium set at 100%", "setting": "[1]", "result": "~60", "unit": "%"}
    ]},
    {"molecule": "VAENQQGKS (listed as Homo sapiens) [nonamer Val 76-Ser 84]", "values": [
      {"measurement": "stimulatory effect retained as compared to the entire (non-mutated) FG loop peptide", "setting": "hippocampal neurons; 50 μM peptide", "result": "approximately 50%"}
    ]},
    {"molecule": "AENQQGK [heptamer Ala 77-Lys 83]", "values": [
      {"measurement": "stimulatory effect retained as compared to the entire (non-mutated) FG loop peptide", "setting": "hippocampal neurons; 50 μM peptide", "result": "approximately 50%"},
      {"measurement": "neurite outgrowth in dose-response study", "setting": "hippocampal neurons", "result": "induced neurite outgrowth"},
      {"measurement": "neuritogenic efficiency compared with the extended form", "setting": "hippocampal neurons; dose-response study", "result": "less efficient than the extended form"}
    ]},
    {"molecule": "Nc1ncnc2c1ncn2[C@@H]1O[C@H](COP(=O)(O)OP(=O)(O)CP(=O)(O)O)[C@@H](O)[C@H]1O", "note": "[AMP-PCP, reference compound]", "values": [
      {"measurement": "inhibition of the neuritogenic effect of the F3 module", "setting": "hippocampal neurons; 5 μM second F3 module, inhibitor 0.4 or 1 mM", "result": "complete inhibition"},
      {"measurement": "effect on neurite outgrowth when added alone", "setting": "hippocampal neurons; 0.4 or 1 mM", "result": "did not have any effect"}
    ]},
    {"molecule": "B1", "values": [
      {"measurement": "cells surviving, high potassium set at 100%", "setting": "[1]", "result": "~60", "unit": "%"}
    ]}
  ]
}
